Measured values taken from article PMC8480776, “Selenium Derivatives as Promising Therapy for Chagas Disease: In Vitro and In Vivo Studies” (ACS Infectious Diseases, 2021).
Like-named read-outs stand apart in the source and are kept apart here.

How the values were obtained:
[1] = system: T. cruzi epimastigotes, Arequipa strain; assay: Screening against extracellular epimastigotes, Arequipa strain; type: cell-based, Trypanosoma cruzi; settings: for Selectivity index (SI), epimastigotes, Arequipa strain: IC50 Vero cells/IC50 epimastigotes; for IC50: Trypanosoma cruzi, 48 h + 24 h resazurin, read-out: Activity IC50, epimastigote form, Arequipa strain
[2] = system: T. cruzi epimastigotes, SN3 strain; assay: Screening against extracellular epimastigotes, SN3 strain; type: cell-based, Trypanosoma cruzi; settings: for IC50: Trypanosoma cruzi, 48 h + 24 h resazurin, read-out: Activity IC50, epimastigote form, SN3 strain; for Selectivity index (SI), epimastigotes, SN3 strain: IC50 Vero cells/IC50 epimastigotes
[3] = system: T. cruzi epimastigotes, Tulahuen strain; assay: Screening against extracellular epimastigotes, Tulahuen strain; type: cell-based, Trypanosoma cruzi; settings: for Selectivity index (SI), epimastigotes, Tulahuen strain: IC50 Vero cells/IC50 epimastigotes; for IC50: Trypanosoma cruzi, TULAHUEN, 48 h + 24 h resazurin, read-out: Activity IC50, epimastigote form, Tulahuen strain
Vero cells = assay: Cytotoxicity test on Vero cells; type: cell-based; settings: Chlorocebus sabaeus, 48 h + 24 h resazurin, read-out: Toxicity IC50 Vero cell
[4] = system: T. cruzi amastigotes, Arequipa strain; assay: Screening against intracellular amastigotes, Arequipa strain; type: cell-based, Trypanosoma cruzi; settings: for selectivity index (SI), Arequipa strain, am. forms: IC50 Vero cells/IC50 amastigotes; for IC50: Trypanosoma cruzi, amastigotes in Vero cells, 72 h, read-out: activity IC50, Arequipa strain, am. forms
[5] = system: T. cruzi amastigotes, Tulahuen strain; assay: Screening against intracellular amastigotes, Tulahuen strain; type: cell-based, Trypanosoma cruzi; settings: Trypanosoma cruzi, TULAHUEN; amastigotes in Vero cells, 72 h; read-out: activity IC50, Tulahuen strain, am. forms
[6] = system: T. cruzi trypomastigotes, Arequipa strain; assay: Screening against bloodstream trypomastigotes, Arequipa strain; type: cell-based, Trypanosoma cruzi; settings: for selectivity index (SI), Arequipa strain, trypom. forms: IC50 Vero cells/IC50 trypomastigotes; for IC50: Trypanosoma cruzi, bloodstream trypomastigotes, 24 h + 4 h resazurin, read-out: activity IC50, Arequipa strain, trypom. forms
[7] = system: T. cruzi trypomastigotes, Tulahuen strain; assay: Screening against bloodstream trypomastigotes, Tulahuen strain; type: cell-based, Trypanosoma cruzi; settings: Trypanosoma cruzi, TULAHUEN; bloodstream trypomastigotes, 24 h + 4 h resazurin; read-out: activity IC50, Tulahuen strain, trypom. forms
[8] = system: T. cruzi amastigotes, SN3 strain; assay: Screening against intracellular amastigotes, SN3 strain; type: cell-based, Trypanosoma cruzi; settings: for IC50: Trypanosoma cruzi, amastigotes in Vero cells, 72 h, read-out: activity IC50, SN3 strain, am. forms
[9] = system: T. cruzi trypomastigotes, SN3 strain; assay: Screening against bloodstream trypomastigotes, SN3 strain; type: cell-based, Trypanosoma cruzi
[10] = system: Vero cells infected with T. cruzi Arequipa strain; assay: Infection rate in Vero cells (infected cells), Arequipa strain; type: cell-based; settings: Trypanosoma cruzi, 72 h of treatment
T. cruzi Arequipa strain = assay: In vivo trypanocidal activity on BALB/c mice (acute and chronic Chagas disease); set-up: species or system Trypanosoma cruzi
Method: (§1) Female BALB/c mice aged 10–12 weeks and with a size of 20–24 g were divided into five groups (n = 3 per group): 0, negative control group (uninfected and untreated mice); I, positive control group (infected and untreated mice); II, BZN group (infected mice treated with BZN); III, 26 group (infected mice treated with 26); and IV, 28 group (infected mice treated with 28).
Mice were infected by intraperitoneal injection of 5 × 10^5 BTs of T. cruzi Arequipa strain per mouse in 200 μL PBS.[42] Subsequently, the treatment was intraperitoneally administered (∼200 μL) once daily for 5 consecutive days.
(§2) The tested selenocompounds and BZN were prepared at 2 mg·mL^–1 in an aqueous suspension vehicle containing 5% (v/v) DMSO and 0.5% (w/v) hydroxypropyl methylcellulose, as previously reported.[52] Compounds (20 mg·kg^–1 per day) were administered for 5 consecutive days (total dosages of 100 mg·kg^–1), and vehicle only was administered in the negative and positive control groups. Treatments began when the infection was confirmed (9 dpi) for acute-phase-treated mice, and when it was established that the animals moved into the chronic phase (100 dpi, for chronic-phase-treated mice; Scheme 1).
[…]. Parasitemia was expressed as parasites·mL^–1.
Immunosuppression was performed by intraperitoneal injection of three doses of 200 mg·kg^–1 of ISOPAC CP at 3–4 day intervals (Scheme 1), as previously reported.[53] Mice were closely monitored for side effects or for secondary infections due to immunosuppression. Within 7 days after the last CP injection, parasitemia reactivation was determined by counting BTs according the procedure described for parasitemia in the acute phase.[42]
On 145 dpi, the mice were euthanized using CO2, followed by exsanguination via cardiac puncture, and blood was collected. […]. In addition, spleens were weighed to assess splenomegaly.[42]
DNA extraction of the post-mortem organs/tissues was performed using Wizard Genomic DNA Purification Kit,[41] and the extracted DNA was subjected to amplification by PCR based on the spliced leader (SL) intergenic region sequence of T. cruzi (for detailed description, see literature reported previously).[55] Finally, the PCR products were resolved by electrophoresis on a 2% agarose gel (containing GelRed nucleic gel stain) for 90 min at 90 V.
Circulating antibodies in serum against both antigens were quantitatively evaluated in triplicate by the ELISA test in 96-well plates using diluted serum samples (1:80 in PBS), as previously described.[41]

[11] = type: in vivo, BALB/c mice; settings: variation vs control
Method: as §1, §2
Serum samples obtained from blood in several days post-infection (Scheme 1) were sent to the Biochemical Service (University of Granada) to measure a series of biochemical parameters with the commercial Cromakit using a clinical chemistry analyzer (BS-200, Shenzhen Mindray Biomedical Electronics Co., LTD), as previously described.[41]

[12] = system: epimastigotes of T. cruzi Arequipa strain; assay: Flow cytometry analysis of nucleic acid levels (acridine orange); type: cell-based, Trypanosoma cruzi; settings: IC25 concentrations, 72 h
[13] = treatment in acute phase, 15th dpi (2 days after treatment)
[14] = treatment in acute phase, necropsy day
[15] = treatment in chronic phase, 106th dpi (2 days after treatment)
[16] = treatment in chronic phase, necropsy day

N#C[Se]c1ccc(NC(=O)c2ccc([N+](=O)[O-])cc2)cc1 [Compound 25]
Selectivity index (SI), epimastigotes, Arequipa strain [1]: 20
IC50 [1]: 26.3 ± 2.1 µM
IC50 [2]: > 50 µM
Selectivity index (SI), epimastigotes, Tulahuen strain [3]: 20
IC50 [3]: 25.3 ± 4.1 µM
CC50 (Vero cells): 516 ± 42.2 µM
selectivity index (SI), Arequipa strain, am. forms [4]: 10
IC50 [4]: 49.3 ± 4.1 µM
IC50 [5]: > 50 µM
selectivity index (SI), Arequipa strain, trypom. forms [6]: 14
IC50 [6]: 35.8 ± 5.8 µM
IC50 [7]: 42.2 ± 3.9 µM

N#C[Se]c1ccc(NC(=O)c2cccc3ccccc23)cc1 [Compound 33]
Selectivity index (SI), epimastigotes, Arequipa strain [1]: 6
IC50 [1]: 9.4 ± 1.2 µM
Selectivity index (SI), epimastigotes, SN3 strain [2]: 11
IC50 [2]: 4.8 ± 0.6 µM
Selectivity index (SI), epimastigotes, Tulahuen strain [3]: 5
IC50 [3]: 10.8 ± 1.2 µM
CC50 (Vero cells): 52.7 ± 4.9 µM
selectivity index (SI), SN3 strain, am. forms ([8]; IC50 Vero cells/IC50 amastigotes): 3
IC50 [8]: 16.9 ± 1.4 µM
selectivity index (SI), SN3 strain, trypom. forms ([9]; IC50 Vero cells/IC50 trypomastigotes): 4
IC50 ([9]; Trypanosoma cruzi, bloodstream trypomastigotes, 24 h + 4 h resazurin, read-out: activity IC50, SN3 strain, trypom. forms): 14.1 ± 1.1 µM

N#C[Se]c1ccc(NC(=O)c2cccs2)cc1 [Compound 29]
Selectivity index (SI), epimastigotes, Arequipa strain [1]: 11
IC50 [1]: 5.4 ± 0.8 µM
Selectivity index (SI), epimastigotes, SN3 strain [2]: 7
IC50 [2]: 8.9 ± 1.1 µM
Selectivity index (SI), epimastigotes, Tulahuen strain [3]: 9
IC50 [3]: 6.6 ± 0.4 µM
CC50 (Vero cells): 60.9 ± 8.7 µM
selectivity index (SI), Arequipa strain, am. forms [4]: 4
IC50 [4]: 15.4 ± 2 µM
selectivity index (SI), Arequipa strain, trypom. forms [6]: 5
IC50 [6]: 12.7 ± 1.2 µM

O=C(Cn1ccnc1[N+](=O)[O-])NCc1ccccc1 [BZN, benznidazole, reference compound]
IC50 [3]: 19.7 ± 1.7 µM
IC50 (Vero cells): 80.4 ± 7.1 µM
IC50 [4]: 8.3 ± 0.7 µM
IC50 [8]: 16.6 ± 1.4 µM
IC50 [5]: 10 ± 0.8 µM
IC50 [6]: 12.4 ± 1.1 µM
IC50 [7]: 15.1 ± 1.3 µM
IC50 [10]: 15.1 µM
parasite-free organs/tissues by PCR, acute phase treatment (T. cruzi Arequipa strain; 20 mg·kg–1 per day i.p. 5 days from 9 dpi, necropsy 145 dpi): 28.6%
anti-T. cruzi IgG levels (ELISA), chronic phase treatment (T. cruzi Arequipa strain; 20 mg·kg–1 per day i.p. 5 days from 100 dpi): similar
parasite-free organs/tissues by PCR, chronic phase treatment (T. cruzi Arequipa strain; 20 mg·kg–1 per day i.p. 5 days from 100 dpi, necropsy 145 dpi): 42.9%
ALP (liver marker) [11, 13]: = (=, variation ≤ 10%)
ALT/GPT (liver marker) [11, 13]: ++ (++/--, 20-30% increase/decrease over the range)
AST/GOT (liver marker) [11, 13]: ++++ (++++/----, ˃ 40% increase/decrease over the range)
CK-MB (heart marker) [11, 13]: = (=, variation ≤ 10%)
LDH (heart marker) [11, 13]: = (=, variation ≤ 10%)
Total bilirubin (liver marker) [11, 13]: ++++ (++++/----, ˃ 40% increase/decrease over the range)
Urea (kidney marker) [11, 13]: -- (++/--, 20-30% increase/decrease over the range)
Uric acid (kidney marker) [11, 13]: ---- (++++/----, ˃ 40% increase/decrease over the range)
ALP (liver marker) [11, 14]: = (=, variation ≤ 10%)
ALT/GPT (liver marker) [11, 14]: = (=, variation ≤ 10%)
AST/GOT (liver marker) [11, 14]: + (+/-, 10-20% increase/decrease over the range)
CK-MB (heart marker) [11, 14]: - (+/-, 10-20% increase/decrease over the range)
LDH (heart marker) [11, 14]: = (=, variation ≤ 10%)
Total bilirubin (liver marker) [11, 14]: ++ (++/--, 20-30% increase/decrease over the range)
Urea (kidney marker) [11, 14]: -- (++/--, 20-30% increase/decrease over the range)
Uric acid (kidney marker) [11, 14]: - (+/-, 10-20% increase/decrease over the range)
ALP (liver marker) [11, 15]: ++++ (++++/----, ˃ 40% increase/decrease over the range)
ALT/GPT (liver marker) [11, 15]: ++ (++/--, 20-30% increase/decrease over the range)
AST/GOT (liver marker) [11, 15]: + (+/-, 10-20% increase/decrease over the range)
CK-MB (heart marker) [11, 15]: -- (++/--, 20-30% increase/decrease over the range)
LDH (heart marker) [11, 15]: -- (++/--, 20-30% increase/decrease over the range)
Total bilirubin (liver marker) [11, 15]: + (+/-, 10-20% increase/decrease over the range)
Urea (kidney marker) [11, 15]: - (+/-, 10-20% increase/decrease over the range)
Uric acid (kidney marker) [11, 15]: - (+/-, 10-20% increase/decrease over the range)
ALP (liver marker) [11, 16]: = (=, variation ≤ 10%)
ALT/GPT (liver marker) [11, 16]: ++ (++/--, 20-30% increase/decrease over the range)
AST/GOT (liver marker) [11, 16]: + (+/-, 10-20% increase/decrease over the range)
CK-MB (heart marker) [11, 16]: -- (++/--, 20-30% increase/decrease over the range)
LDH (heart marker) [11, 16]: -- (++/--, 20-30% increase/decrease over the range)
Total bilirubin (liver marker) [11, 16]: ++ (++/--, 20-30% increase/decrease over the range)
Urea (kidney marker) [11, 16]: = (=, variation ≤ 10%)
Uric acid (kidney marker) [11, 16]: - (+/-, 10-20% increase/decrease over the range)
inhibition of nucleic acid levels [12]: up to 22%
